As a reminder, the Kd is a measure of binding affinity in units of concentration.

Common to all, as to assay type: binding
The target of test [1] is T1, N-terminal CRD of hGalectin-4 (Gal-4N) (Homo sapiens, UniProt P56470).
T1 construct: N-terminal CRD of hGalectin-4 (amino acids 1–150, including an additional C-terminus His-Tag); His-Tag (C, cleaved yes); made in house; host or cells: E. coli BL21 (pET29b)
T1 sequence (P56470 1-150): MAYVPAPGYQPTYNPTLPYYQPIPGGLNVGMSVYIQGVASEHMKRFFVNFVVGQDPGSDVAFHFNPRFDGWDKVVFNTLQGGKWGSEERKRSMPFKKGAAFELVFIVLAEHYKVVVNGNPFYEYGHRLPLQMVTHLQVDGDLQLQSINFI
The test is described as follows: 1H-15N HSQC NMR-based titrations (chemical shift perturbation) of 15N-labeled Gal-4N. The protocol: The molecular recognition event was also analyzed from the perspective of the lectin. Thus, a chemical shift perturbation (CSP) analysis of the changes produced in the ^1H-^15N HSQC spectra recorded for ^15N-labeled Gal-4N upon addition of the different ligands was carried out. This analysis required the NH backbone NMR assignment of the lectin signals, following well-established triple resonance 3D NMR methods (see Materials and methods and Supplementary Information). The assignment protocol allowed assigning 80% of the NH backbone resonances. In addition to the ligands shown in Scheme 1, the corresponding non-fucosylated analogs and the H antigens (devoid of the terminal Gal/GalNAc moieties, see Supplementary Information), as well as lactose, were also employed. Thus, a full comparative analysis on the monosaccharide-specific effects on the lectin CSP was achieved.
The total volume for the NMR samples was 500/μl. The lectin was in phosphate-buffered saline (50 mM sodium phosphate, 150 mM NaCl, pH 7.4), either in D2O or 90:10 H2O:D2O depending on the NMR experiment. The pH was adjusted with the required amount of NaOH and HCl or NaOD and DCl.
experiments were acquired using an 800 MHz Bruker spectrometer with a cryoprobe (Bruker, Billerica, MA, United States). The samples were prepared using 50 μM of the ^15N-labeled lectin in the corresponding buffer in a 90:10 H2O:D2O ratio. The experiments were performed at 298 K. Six to nine points were recorded for each ligand and CSP and KD were calculated using CcpNmr Analysis 2.4.2.

Test [2] concerns the target T1, N-terminal CRD of hGalectin-4 (Gal-4N). Nature of the test: Isothermal titration calorimetry (ITC). The conditions noted are these: for Kd: PBS pH 7.4, single binding site model. The procedure: Isothermal titration calorimetry experiments were performed using the MicroCal PEAQ-ITC calorimeter (Malvern Panalytical, Malvern, United Kingdom). Samples containing 100–200 μM of Gal-4N in PBS (50 mM sodium phosphate, pH 7.4, 300 mM NaCl) were titrated with stocks of 3–10 mM in PBS of glycans 4, 5, 7, 8, 9, and 11. During the automated experiment, small aliquots (2–3 μL) of the sugar stocks were added to the cell containing the lectin. Curve fitting to a single binding site model was performed with the MicroCal Origin 7 software.
Isothermal titratrion calorimetry (ITC). Isothermal Titration Calorimetry experiments were performed using MicroCal PEAQ-ITC calorimeter. Samples containing 100-200 µM of Gal-4N in PBS (50 mM sodium phosphate pH 7.4, 300 mM NaCl) were titrated with stocks of 3-10 mM in PBS of glycans A type 1, A type 2, A type 6, B type 1, B type 2 and B type 6. During the automated experiment, small aliquots (2-3 µL) of the sugar stocks were added to the cell containing the lectin. The association constants and the thermodynamic profile of the binding was calculated from the fitting of the titration data to a single binding site model.
Background: ITC needs no label: the signal is the heat of the interaction.

The target is the same in test [3]. The test is described as follows: 1H Saturation Transfer Difference (STD) NMR epitope mapping. The protocol:
^1H-saturation transfer difference NMR spectra were acquired for mixtures of Gal-4N (50 μM) with a 50-fold excess of ligand. Protein aromatic irradiation afforded the best STD intensities and thus these are discussed henceforth. The STD NMR spectra were very similar among the different ligands with respect to both the observed glycan protons and their intensities. […] Severe proton overlapping precluded a full comparison among ligands, but key isolated ^1H NMR resonance signals permitted to highlight evident differences.
All the STD NMR experiments were performed using an 800 MHz Bruker spectrometer with a cryoprobe (Bruker, Billerica, MA, United States). The samples were prepared in the corresponding deuterated buffer. The temperature was 288 K for every experiment. An amount of 50 μM of the lectin with 50 equivalents of the ligand was employed for every experiment except for lactose, for which a 1:70 ratio was used. The STD spectra were acquired with 1,024 scans, 2 s of saturation time using a train of 50 ms Gaussian-shaped pulses, and 3 s of relaxation delay. The spin-lock filter applied to remove the signals of the lectin was set at 40 ms. The on-resonance frequency was set for the aromatic region at 6.58 ppm, while the off-resonance frequency was set at 100 ppm.
Supplementary Table S1. Relative STD-AF (Amplification factor) and STD percentage of each non overlapping proton of each ligand.

[4] abbreviates: HSQC NMR-based titration, 50 μM 15N-labeled lectin, 298 K, read-out: KD (μM) (NMR).
Where [5] appears, read: 1H-residue H1GalNAc, 50:1 ligand:lectin, 288 K.
Where [6] appears, read: 1H-residue H4GalNAc (terminal, A type 6).
Setting [7] is: 1H-residue H4GalNAc (B type 4, core GalNAc).

As to `OC[C@H]1O[C@@H](O[C@H]2[C@H](O)[C@@H](O)C(O)O[C@@H]2CO)[C@H](O)[C@@H](O)[C@H]1O` (mixture of isomers) [Lactose], in test [1] (NMR titration, read-out: KD), the Kd was found to be 1600 µM.
Regarding `CC(=O)N[C@@H]1[C@@H](O[C@@H]2O[C@H](CO)[C@H](O)[C@H](O[C@H]3O[C@H](CO)[C@H](O)[C@H](O)[C@H]3NC(C)=O)[C@H]2O[C@@H]2O[C@@H](C)[C@@H](O)[C@@H](O)[C@@H]2O)[C@H](O)[C@@H](CO)O[C@H]1O` [A type-1 (tetra)], in test [2], the “-TΔS (kcal mol^–1) (ITC)” value stood at 1.0 kcal mol^–1, the “ΔG (kcal mol^–1) (ITC)” value is on record as −4.9 kcal mol^–1, the “ΔH (kcal mol^–1) (ITC)” value is given as −5.9 kcal mol^–1 and the Kd is 267 µM.
In the case of `CC(=O)N[C@H]1[C@@H](O[C@H]2[C@@H](O)[C@@H](CO)O[C@@H](O[C@H]3[C@@H](O)[C@@H](CO)O[C@@H](O[C@@H]4[C@@H](O)[C@H](O)O[C@H](CO)[C@@H]4O)[C@@H]3NC(C)=O)[C@@H]2O[C@@H]2O[C@@H](C)[C@@H](O)[C@@H](O)[C@@H]2O)O[C@H](CO)[C@H](O)[C@@H]1O` [A type-4 (penta)], in test [1] (setting [4]), the Kd worked out at 1380 µM. Moreover, the STD% worked out at 95% in test [3] (1H-residue H1GalNAc); 61% in test [3] (1H-residue H1Galβ); 36% in test [3] (1H-residue H2Galβ); 28% in test [3] (1H-residue H3GalNAc); 15% in test [3] (1H-residue H3GalNAcb); 21% in test [3] (1H-residue H3Galβ). For the same compound, the STD% stood at 24% in test [3] (1H-residue H4GalNAcb), 71% in test [3] (1H-residue H4Galβ), 100% in test [3] (1H-residue H5Galβ) and 68% in test [3] (1H-residue NHAc GalNAc). The STD-AF worked out at 0.0145 in test [3] (setting [5]); 0.0092 in test [3] (1H-residue H1Galβ); 0.0054 in test [3] (1H-residue H2Galβ); 0.0043 in test [3] (1H-residue H3GalNAc); 0.0023 in test [3] (1H-residue H3GalNAcb); 0.0032 in test [3] (1H-residue H3Galβ). The STD-AF was 0.0036 in test [3] (1H-residue H4GalNAcb); 0.0108 in test [3] (1H-residue H4Galβ); 0.0152 in test [3] (1H-residue H5Galβ); 0.0012 in test [3] (1H-residue MetFuc); 0.0104 in test [3] (1H-residue NHAc GalNAc).
For `CC(=O)NC1C(OC2C(O)C(CO)OC(OC3C(CO)OC(O)C(O)C3O)C2OC2OC(C)C(O)C(O)C2O)OC(CO)C(O)C1O` (centres unmarked) [A type-6 (tetra)], the Kd in test [1] (setting [4]) was 150 µM; in test [2] it was 86 µM. The “-TΔS (kcal mol^–1) (ITC)” value in test [2] is given as 2.9 kcal mol^–1. In addition, the “ΔG (kcal mol^–1) (ITC)” value in test [2] is listed as −5.6 kcal mol^–1. The “ΔH (kcal mol^–1) (ITC)” value in test [2] is on record as −8.5 kcal mol^–1. Also, the “increased affinity of type-6 vs corresponding type-2 antigen” value in test [2] (Glc vs GlcNAc at reducing end, β1–4 linked) is on record as “two-fold”. In addition, the STD% was 13% in test [3] (1H-residue H1 Fuc); 82% in test [3] (1H-residue H1GalNAc); 58% in test [3] (1H-residue H1Galβ); 21% in test [3] (1H-residue H1Glca); 18% in test [3] (1H-residue H1Glcb); 51% in test [3] (1H-residue H2GalNAc). Also, the STD% in test [3] (1H-residue H2Glca / H2Glcα) was 34%; in test [3] (1H-residue H2Glcb / H2Glcβ), 30%; in test [3] (1H-residue H3Galβ), 39%; in test [3] (1H-residue H3Glcb / H3Glcβ), 32%; in test [3] (setting [6]) it was 16%; in test [3] (1H-residue H4Galβ), 60%. Besides, the results for the STD% in test [3] (1H-residue H5Galβ), in test [3] (1H-residue MetFuc) and in test [3] (1H-residue NHAc GalNAc) were 100%, 10% and 100%, respectively. For the same compound, the STD-AF in test [3] (1H-residue H1 Fuc) amounted to 0.0020; in test [3] (setting [5]), 0.0129; in test [3] (1H-residue H1Galβ), 0.0091; in test [3] (1H-residue H1Glca), 0.0033; in test [3] (1H-residue H1Glcb), 0.0028; in test [3] (1H-residue H2GalNAc) it was 0.0081. In addition, the STD-AF in test [3] (1H-residue H2Glca / H2Glcα) came to 0.0054; in test [3] (1H-residue H2Glcb / H2Glcβ) it was 0.0048; in test [3] (1H-residue H3Galβ) it was 0.0061; in test [3] (1H-residue H3Glcb / H3Glcβ) it was 0.0050; in test [3] (setting [6]) it was 0.0025; in test [3] (1H-residue H4Galβ) it was 0.0095. Besides, the STD-AF in test [3] (1H-residue H5Galβ) came out at 0.0158; in test [3] (1H-residue MetFuc), 0.0016; in test [3] (1H-residue NHAc GalNAc) it was 0.0158.
In the case of `CC(=O)NC1C(O)OC(CO)C(OC2OC(CO)C(O)C(OC3OC(CO)C(O)C(O)C3NC(C)=O)C2OC2OC(C)C(O)C(O)C2O)C1O` (centres unmarked) [A type−2 (tetra)], in test [1] (setting [4]), the Kd was found to be 370 µM. For the same compound, in test [2], the “-TΔS (kcal mol^–1) (ITC)” value was found to be 1.8 kcal mol^–1, the “ΔG (kcal mol^–1) (ITC)” value is −5.1 kcal mol^–1, the “ΔH (kcal mol^–1) (ITC)” value is −6.9 kcal mol^–1 and binding was put at a Kd of 187 µM.
Take `CC(=O)NC1C(OC2C(O)C(O)OC(CO)C2O)OC(CO)C(O)C1OC1OC(CO)C(O)C(OC2OC(CO)C(O)C(O)C2O)C1OC1OC(C)C(O)C(O)C1O` (centres unmarked) [B type-4 (penta)]: the Kd in test [1] (setting [4]) worked out at 460 µM. Also, the STD% was found to be 21% in test [3] (1H-residue H1 Fuc); 100% in test [3] (1H-residue H1Galα); 49% in test [3] (1H-residue H1Galβ); 47% in test [3] (1H-residue H2Galβ); 44% in test [3] (1H-residue H3Galα); 30% in test [3] (setting [7]). The STD% is 68% in test [3] (1H-residue H4Galβ), 86% in test [3] (1H-residue H5Galβ), 10% in test [3] (1H-residue MetFuc) and 36% in test [3] (1H-residue NHAc (B type 4)). For the same compound, the STD-AF was 0.0020 in test [3] (1H-residue H1 Fuc); 0.0094 in test [3] (1H-residue H1Galα); 0.0046 in test [3] (1H-residue H1Galβ); 0.0044 in test [3] (1H-residue H2Galβ); 0.0041 in test [3] (1H-residue H3Galα); 0.0028 in test [3] (setting [7]). The STD-AF in test [3] (1H-residue H4Galβ) worked out at 0.0064; in test [3] (1H-residue H5Galβ) it was 0.0081; in test [3] (1H-residue MetFuc), 0.0009; in test [3] (1H-residue NHAc (B type 4)), 0.0034.

The values are drawn from paper PMC8097242, “Galectin-4 N-Terminal Domain: Binding Preferences Toward A and B Antigens With Different Peripheral Core Presentations” (Frontiers in Chemistry, 2021).
